Reference: PMC11683478, “Bioprospecting of culturable marine biofilm bacteria for novel antimicrobial peptides” (iMeta, 2024)

What was measured:
Test in all cases: Antibacterial screen at 200 μg/mL (cell density vs control)
Format in all cases: cell-based
Conditions in all cases: peptide 200 μg/mL, CAMHB, 5 × 10^5 CFU/mL, 37°C, 12 h, OD600; control (no AMP) = 1; three biological replicates
[1] = test system: Acinetobacter baumannii ATCC 19606
Method: (§1) Eight bacterial strains were utilized in the antibacterial experiment. S. aureus ATCC 12600, B. subtilis ATCC 23857, E. coli ATCC 11775, and A. baumannii ATCC 19606 were purchased from Shanghai Beinuo Biology. M. luteus ATCC 4698 and S. bongori ATCC43975 were purchased from Shanghai Beisi Biotechnology. V. owensii ems001 and V. alginolyticus xv22 from the intestines of diseased shrimps were isolated in our laboratory. All strains were cultured in the cation‐adjusted Mueller‐Hinton broth (CAMHB) at 37°C to the logarithmic growth phase (OD600 = 0.5). Then, bacteria were gradient‐diluted using fresh CAMHB to a bacterial density of 5 × 10^5 CFU/mL. Antibacterial experiments were performed in a 96‐well plate with 200 μg/mL final peptide concentration. Four experimental groups were set up, including a blank control (200 μL CAMHB), a negative control (180 μL CAMHB plus 20 μL peptide), a positive control (180 μL bacterial culture plus 20 μL ultrapure water), and an experimental group (180 μL bacterial culture plus 20 μL peptide). Three biological replicates were conducted for each group, and OD600 values were measured after incubation at 37°C for 12 h. Every observed value was removed from the blank control group value. The value of the experimental group was then subtracted from the value of the negative control group therefore eradicating the effect of the peptide on the OD measurement. Student's t‐test allowed the estimation of a notable variation between the experimental and positive groups using a p‐value of 0.05 as the limit. […] The MIC of a peptide against a bacterium was determined as the minimum peptide concentration at which there was no visible bacterial growth.

[2] = test system: Bacillus subtilis ATCC 23857
Method: as §1

[3] = test system: Escherichia coli ATCC 11775
Method: as §1

[4] = test system: Micrococcus luteus ATCC 4698
Method: as §1

[5] = test system: Salmonella bongori ATCC 43975
Method: as §1

[6] = test system: Staphylococcus aureus ATCC 12600
Method: as §1

[7] = test system: Vibrio alginolyticus xv22
Method: as §1

Vibrio owensii ems001 = test system: Vibrio owensii ems001
Method: as §1

For “MCTIRTCRRSRPHHCSTHC [Cand-101, chemically synthesized candidate AMP predicted from marine biofilm bacteria]”, the “cell density relative to control, A. baumannii ATCC 19606” value [1] was 0.879, the “cell density relative to control, B. subtilis ATCC 23857” value [2] was 0 and the “cell density relative to control, E. coli ATCC 11775” value [3] was 0.967. The “cell density relative to control, M. luteus ATCC 4698” value [4] was 0.91, the “cell density relative to control, S. bongori ATCC 43975” value [5] was 0.855 and the “cell density relative to control, S. aureus ATCC 12600” value [6] was 0.01. For the same sequence, the “cell density relative to control, V. alginolyticus xv22” value [7] was 0 and the “cell density relative to control, V. owensii ems001” value (Vibrio owensii ems001) was 1.

With “MCTRSCRPNLVKC [Cand-47, chemically synthesized candidate AMP predicted from marine biofilm bacteria]” the “cell density relative to control, A. baumannii ATCC 19606” value [1] was 0.895, the “cell density relative to control, B. subtilis ATCC 23857” value [2] was 1 and the “cell density relative to control, E. coli ATCC 11775” value [3] was 1. The “cell density relative to control, M. luteus ATCC 4698” value [4] was 1, the “cell density relative to control, S. bongori ATCC 43975” value [5] was 0.835 and the “cell density relative to control, S. aureus ATCC 12600” value [6] was 1. For the same sequence, the “cell density relative to control, V. alginolyticus xv22” value [7] was 1 and the “cell density relative to control, V. owensii ems001” value (Vibrio owensii ems001) was 1.

“MCTSKKKVWRCVAPS [Cand-33, chemically synthesized candidate AMP predicted from marine biofilm bacteria]” was tested, and the “cell density relative to control, A. baumannii ATCC 19606” value [1] was 0.813, the “cell density relative to control, B. subtilis ATCC 23857” value [2] was 0.601 and the “cell density relative to control, E. coli ATCC 11775” value [3] was 0.96. For the same sequence, the “cell density relative to control, M. luteus ATCC 4698” value [4] was 1, the “cell density relative to control, S. bongori ATCC 43975” value [5] was 1 and the “cell density relative to control, S. aureus ATCC 12600” value [6] was 0.874. The “cell density relative to control, V. alginolyticus xv22” value [7] was 0.879 and the “cell density relative to control, V. owensii ems001” value (Vibrio owensii ems001) was 1.

In the case of “MFKFFCCIFYMCRIKTH [Cand-18, chemically synthesized candidate AMP predicted from marine biofilm bacteria]”, the “cell density relative to control, A. baumannii ATCC 19606” value [1] was 0.014, the “cell density relative to control, B. subtilis ATCC 23857” value [2] was 0 and the “cell density relative to control, E. coli ATCC 11775” value [3] was 0.004. The “cell density relative to control, M. luteus ATCC 4698” value [4] was 0, the “cell density relative to control, S. bongori ATCC 43975” value [5] was 0.031 and the “cell density relative to control, S. aureus ATCC 12600” value [6] was 0. The “cell density relative to control, V. alginolyticus xv22” value [7] was 0 and the “cell density relative to control, V. owensii ems001” value (Vibrio owensii ems001) was 0.007.

For “MFSKLVKVLLKALCHVFMKCTFW [Cand-61, chemically synthesized candidate AMP predicted from marine biofilm bacteria]”, the “cell density relative to control, A. baumannii ATCC 19606” value [1] was 0.884, the “cell density relative to control, B. subtilis ATCC 23857” value [2] was 0 and the “cell density relative to control, E. coli ATCC 11775” value [3] was 1. The “cell density relative to control, M. luteus ATCC 4698” value [4] was 1, the “cell density relative to control, S. bongori ATCC 43975” value [5] was 0.633 and the “cell density relative to control, S. aureus ATCC 12600” value [6] was 0. The “cell density relative to control, V. alginolyticus xv22” value [7] was 1 and the “cell density relative to control, V. owensii ems001” value (Vibrio owensii ems001) was 0.001.

In the case of “MGAVCRMGSLPCLIPRGAIRLG [Cand-198, chemically synthesized candidate AMP predicted from marine biofilm bacteria]”, the “cell density relative to control, A. baumannii ATCC 19606” value [1] was 0.765, the “cell density relative to control, B. subtilis ATCC 23857” value [2] was 1 and the “cell density relative to control, E. coli ATCC 11775” value [3] was 0.844. For the same sequence, the “cell density relative to control, M. luteus ATCC 4698” value [4] was 1, the “cell density relative to control, S. bongori ATCC 43975” value [5] was 0.827 and the “cell density relative to control, S. aureus ATCC 12600” value [6] was 0.817. For the same sequence, the “cell density relative to control, V. alginolyticus xv22” value [7] was 0.891 and the “cell density relative to control, V. owensii ems001” value (Vibrio owensii ems001) was 0.904.

For “MGPHWRGPRWGRVGCWNL [Cand-154, chemically synthesized candidate AMP predicted from marine biofilm bacteria]”, the “cell density relative to control, A. baumannii ATCC 19606” value [1] was 1, the “cell density relative to control, B. subtilis ATCC 23857” value [2] was 0 and the “cell density relative to control, E. coli ATCC 11775” value [3] was 0.622. For the same sequence, the “cell density relative to control, M. luteus ATCC 4698” value [4] was 0.814, the “cell density relative to control, S. bongori ATCC 43975” value [5] was 0.544 and the “cell density relative to control, S. aureus ATCC 12600” value [6] was 0.038. For the same sequence, the “cell density relative to control, V. alginolyticus xv22” value [7] was 0.077 and the “cell density relative to control, V. owensii ems001” value (Vibrio owensii ems001) was 0.004.

In the case of “MGRISCMWSSSYKCRFNCYF [Cand-20, chemically synthesized candidate AMP predicted from marine biofilm bacteria]”, the “cell density relative to control, A. baumannii ATCC 19606” value [1] was 0.937, the “cell density relative to control, B. subtilis ATCC 23857” value [2] was 1 and the “cell density relative to control, E. coli ATCC 11775” value [3] was 1. The “cell density relative to control, M. luteus ATCC 4698” value [4] was 1, the “cell density relative to control, S. bongori ATCC 43975” value [5] was 1 and the “cell density relative to control, S. aureus ATCC 12600” value [6] was 0.809. The “cell density relative to control, V. alginolyticus xv22” value [7] was 0.635 and the “cell density relative to control, V. owensii ems001” value (Vibrio owensii ems001) was 0.818.

In the case of “MGTYPKVGNSHWKR [Cand-69, chemically synthesized candidate AMP predicted from marine biofilm bacteria]”, the “cell density relative to control, A. baumannii ATCC 19606” value [1] was 0.889, the “cell density relative to control, B. subtilis ATCC 23857” value [2] was 1 and the “cell density relative to control, E. coli ATCC 11775” value [3] was 1. For the same sequence, the “cell density relative to control, M. luteus ATCC 4698” value [4] was 1, the “cell density relative to control, S. bongori ATCC 43975” value [5] was 0.886 and the “cell density relative to control, S. aureus ATCC 12600” value [6] was 0.819. The “cell density relative to control, V. alginolyticus xv22” value [7] was 1 and the “cell density relative to control, V. owensii ems001” value (Vibrio owensii ems001) was 1.

With “MICWCAKICCSCSAFRRWWKRNGTAC [Cand-57, chemically synthesized candidate AMP predicted from marine biofilm bacteria]” the “cell density relative to control, A. baumannii ATCC 19606” value [1] was 0.653, the “cell density relative to control, B. subtilis ATCC 23857” value [2] was 0 and the “cell density relative to control, E. coli ATCC 11775” value [3] was 0.456. For the same sequence, the “cell density relative to control, M. luteus ATCC 4698” value [4] was 1, the “cell density relative to control, S. bongori ATCC 43975” value [5] was 0.134 and the “cell density relative to control, S. aureus ATCC 12600” value [6] was 0. The “cell density relative to control, V. alginolyticus xv22” value [7] was 0 and the “cell density relative to control, V. owensii ems001” value (Vibrio owensii ems001) was 0.002.

“MIYICTRITKCKLHGGCSSVG [Cand-155, chemically synthesized candidate AMP predicted from marine biofilm bacteria]” was tested, and the “cell density relative to control, A. baumannii ATCC 19606” value [1] was 1, the “cell density relative to control, B. subtilis ATCC 23857” value [2] was 0.99 and the “cell density relative to control, E. coli ATCC 11775” value [3] was 1. For the same sequence, the “cell density relative to control, M. luteus ATCC 4698” value [4] was 1, the “cell density relative to control, S. bongori ATCC 43975” value [5] was 1 and the “cell density relative to control, S. aureus ATCC 12600” value [6] was 0. For the same sequence, the “cell density relative to control, V. alginolyticus xv22” value [7] was 1 and the “cell density relative to control, V. owensii ems001” value (Vibrio owensii ems001) was 0.77.

“MKALRRFLSCKVCSHALN [Cand-160, chemically synthesized candidate AMP predicted from marine biofilm bacteria]” was tested, and the “cell density relative to control, A. baumannii ATCC 19606” value [1] was 0.001, the “cell density relative to control, B. subtilis ATCC 23857” value [2] was 0 and the “cell density relative to control, E. coli ATCC 11775” value [3] was 0.406. The “cell density relative to control, M. luteus ATCC 4698” value [4] was 0.638, the “cell density relative to control, S. bongori ATCC 43975” value [5] was 0.072 and the “cell density relative to control, S. aureus ATCC 12600” value [6] was 0. The “cell density relative to control, V. alginolyticus xv22” value [7] was 0.001 and the “cell density relative to control, V. owensii ems001” value (Vibrio owensii ems001) was 0.442.

In the case of “MKGLSKCVTHVVTAA [Cand-115, chemically synthesized candidate AMP predicted from marine biofilm bacteria]”, the “cell density relative to control, A. baumannii ATCC 19606” value [1] was 1, the “cell density relative to control, B. subtilis ATCC 23857” value [2] was 1 and the “cell density relative to control, E. coli ATCC 11775” value [3] was 1. The “cell density relative to control, M. luteus ATCC 4698” value [4] was 1, the “cell density relative to control, S. bongori ATCC 43975” value [5] was 0.935 and the “cell density relative to control, S. aureus ATCC 12600” value [6] was 0.907. For the same sequence, the “cell density relative to control, V. alginolyticus xv22” value [7] was 1 and the “cell density relative to control, V. owensii ems001” value (Vibrio owensii ems001) was 0.994.

With “MKRLKKCVLSSLSI [Cand-126, chemically synthesized candidate AMP predicted from marine biofilm bacteria]” the “cell density relative to control, A. baumannii ATCC 19606” value [1] was 0.191, the “cell density relative to control, B. subtilis ATCC 23857” value [2] was 0.301 and the “cell density relative to control, E. coli ATCC 11775” value [3] was 0.448. The “cell density relative to control, M. luteus ATCC 4698” value [4] was 0, the “cell density relative to control, S. bongori ATCC 43975” value [5] was 0.299 and the “cell density relative to control, S. aureus ATCC 12600” value [6] was 0. The “cell density relative to control, V. alginolyticus xv22” value [7] was 0.039 and the “cell density relative to control, V. owensii ems001” value (Vibrio owensii ems001) was 1.

For “MLKLSWNLCRPIGRRW [Cand-186, chemically synthesized candidate AMP predicted from marine biofilm bacteria]”, the “cell density relative to control, A. baumannii ATCC 19606” value [1] was 0.276, the “cell density relative to control, B. subtilis ATCC 23857” value [2] was 0 and the “cell density relative to control, E. coli ATCC 11775” value [3] was 0.036. For the same sequence, the “cell density relative to control, M. luteus ATCC 4698” value [4] was 0.164, the “cell density relative to control, S. bongori ATCC 43975” value [5] was 0.245 and the “cell density relative to control, S. aureus ATCC 12600” value [6] was 0.112. The “cell density relative to control, V. alginolyticus xv22” value [7] was 0.192 and the “cell density relative to control, V. owensii ems001” value (Vibrio owensii ems001) was 0.091.
